The text below walks through data of patent publication US20070043000A1, “Immunosuppresive effects of pteridine derivatives” (priority 2003, published 2007).

Read-outs that look alike come from different tables or passages of the source.

Holding throughout (type): cell-based, human
For experiment [1], the system named is TNF-alpha production by PBMC. Put plainly: TNF-alpha assay, LPS-stimulated PBMC, sandwich ELISA. The protocol: (§1) All reagents were dissolved in 0.5 ml dimethylsulfoxide (hereinafter referred as DMSO) and further diluted in culture medium before use for the following in vitro experiments. The commercially available culture medium consisted of RPMI-1640+10% foetal calf serum (FCS). Peripheral blood mononuclear cells (herein referred as PBMC), in response to stimulation by lipopolysaccharide (LPS), a gram-negative bacterial endotoxin, produce various […], in particular human TNF-alpha and II-1 beta. The inhibition of the activation of PBMC can be measured by the level of suppression of the production of TNF-alpha or IL-1 beta by PBMC in response to stimulation by LPS. Such inhibition measurement was performed as follows: PBMC were isolated from heparinized peripheral blood (Buffy coat) by density gradient centrifugation. LPS is then added to the PMBC suspension in complete medium (10^6 cells/ml) at a final concentration of 1 μg/ml. The compound to be tested was added at different dilution levels, and the cells were incubated at 37° C. for 72 hours. The supernatants were collected, and TNF-alpha or II-1 beta concentrations were measured with respectively an anti-TNF antibody or an anti-IL-1 beta antibody in a sandwich ELISA. The percent inhibition was calculated as: % inhibition=(pg/ml in sample−pg/ml min.)/(pg/ml max.−pg/ml min.)−1 wherein: min.: pg/ml in culture medium without test compound, and • max.: pg/ml in culture medium+LPS without test compound.
On the technique in general: An ELISA detects its analyte on a solid surface through an enzyme-linked reagent.

For experiment [2], the system named is IL-1 beta production by PBMC. Put plainly: IL-1 beta assay, LPS-stimulated PBMC, sandwich ELISA. The protocol: as §1
Experiment [3] relates to peripheral blood mononuclear cells (PBMC). Put plainly: Mixed lymphocyte reaction (MLR) test. The protocol: All reagents were dissolved in 0.5 ml dimethylsulfoxide (hereinafter referred as DMSO) and further diluted in culture medium before use for the following in vitro experiments. The commercially available culture medium consisted of RPMI-1640+10% foetal calf serum (FCS). Peripheral blood mononuclear cells (hereinafter referred as PBMC) were isolated from heparinized peripheral blood by density gradient centrifugation over Lymphoprep (Nycomed, Maorstua, Norway). Allogeneic PBMC or […]-Barr Virus-transformed human B cells [commercially available under the trade name RPMI1788 (ATCC name CCL156)] which strongly express B7-1 and B7-2 antigens were used as stimulator cells after irradiation with 30 Gy. MLR was performed in triplicate wells. After 5 days incubation at 37° C., 1 μCi [^3H]-thymidine was added to each cup. After a further 16 hours incubation, cells were harvested and counted in a β-counter. Inhibition of proliferation by a compound (drug) described in some of the previous examples was counted using the formula: [formula] wherein cpm is the thymidine count per minute. TNF-Alpha and IL-1 Beta Assays

Where [4] appears, read: Table 7, same conditions as example 26, read-out: TNFα IC50.
Setting [5] is: Table 7, same conditions as example 26, read-out: IL1β IC50.
Setting [6] is: Table 7, same conditions as example 26.
Where [7] appears, read: Table 2, LPS 1 μg/ml, 72 hours, read-out: TNF IC50.
Setting [8] is: Table 2, LPS 1 μg/ml, 72 hours, read-out: IL-1 IC50.
[9] abbreviates: Table 2, [3H]-thymidine incorporation after 5 days incubation.

The term IC50 denotes the concentration at which inhibition is half-maximal. “7-chloro-3-(chlorophenyl)-1-methyl-lumazine [Example 46]”: the IC50 in experiment [1] (setting [4]) was found to be 4700 nM; in experiment [2] (setting [5]), 900 nM; in experiment [3] (setting [6]), 5700 nM.
For the compound `Cn1c(=O)[nH]c2nc(Cl)c(-c3ccccc3)nc2c1=O` [Example 6, 3-methyl-6-phenyl-7-chloro-lumazine], the values for the IC50 in experiment [1] (setting [7]) and in experiment [2] (setting [8]) were 3000 nM and 400 nM, respectively.
As to `Cn1c(=O)[nH]c(=O)c2nc(-c3ccccc3)c(Cl)nc21` [Example 14, 1-methyl-6-phenyl-7-chloro-lumazine], the IC50 in experiment [2] (setting [8]) stood at 350 nM; in experiment [3] (setting [9]) it was 4100 nM.
As for `COc1ccc(-c2nc3c(=O)[nH]c(=O)n(C)c3nc2Cl)cc1` [Example 15, 1-methyl-6-(4′-methoxyphenyl)-7-chloro-lumazine], the concentration for half-maximal inhibition (IC50) in experiment [1] (setting [7]) came to 800 nM; in experiment [2] (setting [8]), 400 nM; in experiment [3] (setting [9]) it was 3000 nM.
`Cc1ccc(-c2nc3c(=O)[nH]c(=O)n(C)c3nc2Cl)cc1` [Example 16, 1-methyl-6-(4′-methylphenyl)-7-chloro-lumazine]: the IC50 in experiment [1] (setting [7]) came out at 1100 nM; in experiment [3] (setting [9]), 3600 nM.
For `O=c1[nH]c(=O)n(-c2ccccc2)c2nc(Cl)c(-c3ccccc3)nc12` [Example 17, 1,6-diphenyl-7-chloro-lumazine], the IC50 in experiment [1] (setting [7]) was found to be 800 nM; in experiment [2] (setting [8]) it was 200 nM; in experiment [3] (setting [9]), 3000 nM.
For the compound `O=c1[nH]c(=O)n(Cc2ccccc2)c2nc(Cl)c(-c3ccccc3)nc12` [Example 18, 1-benzyl-6-phenyl-7-chloro-lumazine], the IC50 in experiment [1] (setting [7]) came to 4500 nM; in experiment [3] (setting [9]), 4400 nM.
The corresponding values for `COc1ccc(-c2nc3c(=O)[nH]c(=O)n(C)c3nc2Cl)cc1OC` [Example 19, 1-methyl-6-(3′,4′-dimethoxyphenyl)-7-chloro-lumazine] are 1100 nM and 5100 nM.
Turning to `Cn1c(=O)[nH]c(=O)c2nc(-c3ccc(Cl)cc3)c(Cl)nc21` [Example 20, 1-methyl-6-(4′-chlorophenyl)-7-chloro-lumazine], the values for the IC50 in experiment [1] (setting [7]) and in experiment [2] (setting [8]) were 3800 nM and 400 nM, respectively.
As to `COc1ccc(-c2nc3c(=O)[nH]c(=O)n(C)c3nc2Cl)cc1` [Example 40, 7-chloro-6-(4-methoxyphenyl)-1-methyl-lumazine], the IC50 in experiment [1] (setting [4]) was 800 nM; in experiment [2] (setting [5]) it was 600 nM; in experiment [3] (setting [6]), 3300 nM.
The corresponding values for `COc1ccc(-c2nc3c(=O)[nH]c(=O)n(C)c3nc2Cl)cc1OC` [Example 41, 7-chloro-6-(3,4-dimethoxyphenyl)-1-methyl-lumazine] are 1700 nM, 700 nM and 5100 nM.
Taken in the same sequence, the figures for `COc1cccc(-c2nc3c(=O)[nH]c(=O)n(C)c3nc2Cl)c1` [Example 43, 7-chloro-6-(3-methoxyphenyl)-1-methyl-lumazine] were 3700 nM, 2000 nM and 4900 nM.
Take `COc1cccc(OC)c1-c1nc2c(=O)[nH]c(=O)n(C)c2nc1Cl` [Example 44, 7-chloro-(2,6-dimethoxyphenyl)-1-methyl-lumazine]: the IC50 in experiment [1] (setting [4]) was determined as 5900 nM; in experiment [2] (setting [5]), 500 nM; in experiment [3] (setting [6]) it was 4900 nM.
Taken in the same sequence, the figures for `Cn1c(=O)[nH]c(=O)c2nc(-c3ccccc3Cl)c(Cl)nc21` [Example 45, 7-chloro-(2-chlorophenyl)-1-methyl-lumazine] were 2300 nM, 300 nM and 3900 nM.
The corresponding values for `Cn1c(=O)[nH]c(=O)c2nc(-c3ccc(C#N)cc3)c(Cl)nc21` [Example 48, 7-chloro6-(4-cyanophenyl)-1-methyl-lumazine] are 2500 nM, 400 nM and 4300 nM.
The corresponding values for `COc1ccc(-c2nc3c(=O)[nH]c(=O)n(C)c3nc2Br)cc1OC` [Example 50, 7-bromo-6-(3,4-dimethoxyphenyl)-1-methyl-lumazine] are 1000 nM, 600 nM and 4000 nM.
In the case of `COc1ccc(-c2nc3c(=O)[nH]c(=O)n(C)c3nc2Br)cc1` [Example 51, 7-bromo-6-(4-methoxyphenyl)-1-methyl-lumazine], the 50% inhibitory concentration (IC50) in experiment [1] (setting [4]) is 4600 nM; in experiment [2] (setting [5]), 5700 nM; in experiment [3] (setting [6]), 3600 nM.
Turning to `Cc1ccc(-c2nc3c(=O)[nH]c(=O)n(C)c3nc2Cl)cc1` [Example 52, 7-chloro-1-methyl-6-(4-methylphenyl)-lumazine], the IC50 in experiment [1] (setting [4]) stood at 1100 nM; in experiment [3] (setting [6]), 3500 nM.
In the case of `O=c1[nH]c(=O)n(Cc2ccccc2)c2nc(Cl)c(-c3ccccc3)nc12` [Example 53, 7-chloro-1-benzyl-6-phenyl-lumazine], the values for the IC50 in experiment [1] (setting [4]), in experiment [2] (setting [5]) and in experiment [3] (setting [6]) were 4500 nM, 1200 nM and 4400 nM, respectively.
Consider `Cn1c(=O)[nH]c(=O)c2nc(-c3ccc(Cl)cc3)c(Cl)nc21` [Example 54, 7-chloro-6-(4-chlorophenyl)-1-methyl-lumazine], for which the figures for the concentration for half-maximal inhibition (IC50) in experiment [1] (setting [4]) and in experiment [2] (setting [5]) were 3800 nM and 500 nM, respectively.
With `CCOC(=O)CCCn1c(=O)c2nc(-c3ccccc3)c(Cl)nc2n(C)c1=O` [Example 55, 7-chloro-3-(ethyl butyrate)-1-methyl-6-phenyl-lumazine], the IC50 in experiment [1] (setting [4]) came out at 500 nM; in experiment [2] (setting [5]) it was 600 nM; in experiment [3] (setting [6]), 4900 nM.
Taken in the same sequence, the figures for `CCOC(=O)CCCn1c(=O)n(C)c(=O)c2nc(-c3ccccc3)c(Cl)nc21` [Example 56, 7-chloro-1-(ethyl butyrate)-3-methyl-6-phenyl-lumazine] were 500 nM, 600 nM and 4900 nM.
Taken in the same sequence, the figures for `Cn1c(=O)n(CCO)c(=O)c2nc(-c3ccccc3)c(Cl)nc21` [Example 57, 7-chloro-3-(2-hydroxyethyl)-1-methyl-6-phenyl-lumazine] were 400 nM, 700 nM and 5000 nM.
Turning to `Cn1c(=O)n(CCc2ccccc2)c(=O)c2nc(-c3ccccc3)c(Cl)nc21` [Example 58, 7-chloro-3-(2-phenylethyl)-1-methyl-6-phenyl-lumazine], the IC50 in experiment [1] (setting [4]) is 5500 nM; in experiment [2] (setting [5]), 500 nM; in experiment [3] (setting [6]), 5600 nM.
As to `Cn1c(=O)n(Cc2ccccc2)c(=O)c2nc(-c3ccccc3)c(Cl)nc21` [Example 59, 7-chloro-3-benzyl-1-methyl-6-phenyl-lumazine], the IC50 was found to be 5300 nM in experiment [1] (setting [4]), 500 nM in experiment [2] (setting [5]) and 5000 nM in experiment [3] (setting [6]).
The corresponding values for `Cn1c(=O)c2nc(-c3ccccc3)c(Cl)nc2n(CCc2ccccc2)c1=O` [Example 60, 7-chloro-1-(2-phenylethyl)-3-methyl-6-phenyl-lumazine] are 5800 nM, 4100 nM and 3500 nM.
As to `Cn1c(=O)c2nc(-c3ccccc3)c(Cl)nc2n(Cc2ccccc2)c1=O` [Example 61, 1-benzyl-7-chloro-3-methyl-6-phenyl-lumazine], the IC50 in experiment [1] (setting [4]) turned out to be 700 nM; in experiment [2] (setting [5]), 500 nM; in experiment [3] (setting [6]), 3700 nM.
Taken in the same sequence, the figures for `Cn1c(=O)c2nc(-c3ccccc3)c(Cl)nc2n(CCO)c1=O` [Example 62, 7-chloro-1-(2-hydroxyethyl)-3-methyl-6-phenyl-lumazine] were 600 nM, 600 nM and 2500 nM.
Taken in the same sequence, the figures for `CCOC(=O)CCCn1c(=O)c2nc(-c3ccc(OC)c(OC)c3)c(Cl)nc2n(C)c1=O` [Example 63, 7-chloro-6-(3,4-dimethoxyphenyl)-3-(ethyl butyrate)-1-methyl-lumazine] were 600 nM, 900 nM and 5700 nM.
The corresponding values for `COc1ccc(-c2nc3c(=O)n(CCO)c(=O)n(C)c3nc2Cl)cc1OC` [Example 64, 7-chloro-6-(3,4-dimethoxyphenyl)-3-(2-hydroxyethyl)-1-methyl-lumazine] are 700 nM, 500 nM and 5700 nM.
For `CCOC(=O)CCCn1c(=O)c2nc(-c3ccccc3)c(Cl)nc2n(-c2ccccc2)c1=O` [Example 65, 7-chloro-1,6-diphenyl-3-(ethyl butyrate)-lumazine], the IC50 in experiment [1] (setting [4]) was determined as 800 nM; in experiment [2] (setting [5]), 500 nM; in experiment [3] (setting [6]), 3800 nM.
